“And” between values parts separate entries of the source, which are not always exact repeats. Equal entries are not always repeated. Toxic doses and inconclusive results are not listed. Rule for the calls: active = survival T/C of 150% or more; inactive = T/C below 125% in these data.
Test system: CD2F1 mice, L1210 leukemia ip, survival T/C
Assay: NCI In Vivo Anticancer Drug Screen. Data for tumor model L1210 Leukemia (intraperitoneal) in CD2F1 (CDF1) mice
Details: higher = longer survival
Summary of the method: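 Compound-dosed mice with transplantable tumor versus matched vehicle controls; endpoint ratio T/C reported.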

[1] = endpoint: mean survival time, dose: 50.0 mg/kg/injection, schedule: Q01DX009 (ip), vehicle: saline with Tween-80
[2] = endpoint: mean survival time, dose: 100.0 mg/kg/injection, schedule: Q01DX009 (ip), vehicle: saline with Tween-80
[3] = endpoint: mean survival time, dose: 100.0 mg/kg/injection, schedule: Q04DX003 (ip), vehicle: saline with Tween-80
[4] = endpoint: mean survival time, dose: 200.0 mg/kg/injection, schedule: Q01DX009 (ip), vehicle: saline with Tween-80
[5] = endpoint: mean survival time, dose: 200.0 mg/kg/injection, schedule: Q04DX003 (ip), vehicle: saline with Tween-80
[6] = endpoint: mean survival time, dose: 400.0 mg/kg/injection, schedule: Q04DX003 (ip), vehicle: saline with Tween-80
[7] = endpoint: mean survival time, dose: 100.0 mg/kg/injection, schedule: Q04DX002 (ip), vehicle: saline with Tween-80
[8] = endpoint: mean survival time, dose: 200.0 mg/kg/injection, schedule: Q04DX002 (ip), vehicle: saline with Tween-80
[9] = endpoint: mean survival time, dose: 400.0 mg/kg/injection, schedule: Q04DX002 (ip), vehicle: saline with Tween-80
[10] = endpoint: mean survival time, dose: 100.0 mg/kg/injection, schedule: Q01DX009 (ip), vehicle: saline
[11] = endpoint: mean survival time, dose: 200.0 mg/kg/injection, schedule: Q01DX009 (ip), vehicle: saline
[12] = endpoint: mean survival time, dose: 400.0 mg/kg/injection, schedule: Q01DX009 (ip), vehicle: saline
[13] = endpoint: mean survival time, dose: 25.0 mg/kg/injection, schedule: Q01DX009 (ip), vehicle: saline

Measured: T/C

CC(=O)Nc1ccccc1OC(=O)c1ccccc1
inactive: [1] 97 % of control | [2] 97 % of control | [3] 101 % of control | [4] 97 % of control | [5] 95 % of control

CC1CC(=O)C=C(O)C1 (configuration not stated)
inactive: [3] 93 % of control | [5] 93 % of control | [6] 93 % of control

[O-]/[N+](=C\Cc1ccccc1)c1ccccc1
inactive: [7] 90 % of control | [8] 87 % of control | [9] 90 % of control

CC1OC(Sc2ncnc3nc[nH]c23)C(O)C(O)C1O (configuration not stated)
active: endpoint: median survival time, dose: 200.0 mg/kg/injection, schedule: Q01DX005 (ip), vehicle: saline with Tween-80 150 % of control and 151 % of control | endpoint: median survival time, dose: 400.0 mg/kg/injection, schedule: Q01DX005 (ip), vehicle: saline with Tween-80 170 % of control
inactive: endpoint: median survival time, dose: 12.5 mg/kg/injection, schedule: Q01DX005 (ip), vehicle: saline with Tween-80 105 % of control | endpoint: median survival time, dose: 25.0 mg/kg/injection, schedule: Q01DX005 (ip), vehicle: saline with Tween-80 107 % of control | endpoint: median survival time, dose: 50.0 mg/kg/injection, schedule: Q01DX005 (ip), vehicle: saline with Tween-80 103 % of control and 109 % of control | endpoint: median survival time, dose: 100.0 mg/kg/injection, schedule: Q01DX005 (ip), vehicle: saline with Tween-80 122 % of control

O=C(O)C1(C(=O)O)CC2CC=CCC2C1 (configuration not stated)
inactive: [10] 98 % of control | [11] 100 % of control | [12] 87 % of control

CC1C(=O)OC2C1CCC1(C)C=CC(=O)C(C)(Cl)C21O (configuration not stated)
inactive: [7] 100 % of control | [8] 100 % of control | [9] 91 % of control and 87 % of control

CCOC(=O)c1ccc(NCN2C(=O)CCC2=O)cc1
inactive: [2] 95 % of control | [4] 101 % of control | endpoint: mean survival time, dose: 400.0 mg/kg/injection, schedule: Q01DX009 (ip), vehicle: saline with Tween-80 102 % of control

Cc1cccc(C)c1NC(=S)N1CCC(CCCC2CCN(C(=S)Nc3c(C)cccc3C)CC2)CC1
inactive: [3] 105 % of control | [5] 96 % of control | [6] 96 % of control

COC(=O)C1c2ccccc2-c2ccccc21
inactive: endpoint: mean survival time, dose: 50.0 mg/kg/injection, schedule: Q04DX003 (ip), vehicle: saline with Tween-80 95 % of control | [3] 103 % of control | [5] 100 % of control

N#CC(c1ccccc1)C(CC(=O)c1ccccc1)c1ccccc1 (configuration not stated)
inactive: [2] 88 % of control | [3] 100 % of control | [4] 88 % of control | [5] 96 % of control | [6] 103 % of control

CN(C)P(=O)(N(C)C)N(C)C
inactive: [10] 105 % of control | [11] 104 % of control | [12] 107 % of control

O=C(O)c1c(F)cccc1Br
inactive: [7] 102 % of control | [8] 98 % of control | [9] 102 % of control

Nc1nccc2c1nnn2C1OC(CO)C(O)C1O (configuration not stated)
inactive: endpoint: mean survival time, dose: 12.5 mg/kg/injection, schedule: Q01DX005 (ip), vehicle: water 102 % of control | endpoint: mean survival time, dose: 25.0 mg/kg/injection, schedule: Q01DX005 (ip), vehicle: water 104 % of control | endpoint: mean survival time, dose: 50.0 mg/kg/injection, schedule: Q01DX005 (ip), vehicle: water 96 % of control | endpoint: mean survival time, dose: 100.0 mg/kg/injection, schedule: Q01DX005 (ip), vehicle: water 102 % of control | endpoint: mean survival time, dose: 200.0 mg/kg/injection, schedule: Q01DX005 (ip), vehicle: water 106 % of control

C[CH2][Sn](/[CH]=C/C=C/OC)([CH2]C)[CH2]C
inactive: endpoint: mean survival time, dose: 0.04 mg/kg/injection, schedule: Q01DX009 (ip), vehicle: saline 101 % of control | endpoint: mean survival time, dose: 0.09 mg/kg/injection, schedule: Q01DX009 (ip), vehicle: saline 101 % of control

O=C(O)c1c(Cl)c(Cl)c(C(=O)O)c(Cl)c1Cl
inactive: [3] 96 % of control | [5] 96 % of control | [6] 94 % of control

NCCOC(=O)/C=C/c1ccccc1
inactive: [10] 93 % of control | [11] 97 % of control

CC(C)(O)/C=C/C(=O)[C@](C)(O)[C@H]1[C@H](O)C[C@@]2(C)[C@@H]3CC=C4[C@@H](C=C(O)C(=O)C4(C)C)[C@]3(C)C(=O)C[C@]12C
inactive: endpoint: median survival time, dose: 0.5 mg/kg/injection, schedule: Q01DX005 (ip), vehicle: water 113 % of control | endpoint: median survival time, dose: 1.0 mg/kg/injection, schedule: Q01DX005 (ip), vehicle: water 110 % of control

Nc1nc(N)c(-c2cccc(Cl)c2)c(CBr)n1
inactive: endpoint: mean survival time, dose: 6.25 mg/kg/injection, schedule: Q01DX009 (ip), vehicle: saline 102 % of control | endpoint: mean survival time, dose: 12.5 mg/kg/injection, schedule: Q01DX009 (ip), vehicle: saline 103 % of control | [13] 109 % of control

CC1CCC=C2C(=O)C3OC3C(C(C)(C)O)C21C (configuration not stated)
inactive: endpoint: mean survival time, dose: 100.0 mg/kg/injection, schedule: Q04DX003 (ip), vehicle: acetone 93 % of control | endpoint: mean survival time, dose: 200.0 mg/kg/injection, schedule: Q04DX003 (ip), vehicle: acetone 88 % of control | endpoint: mean survival time, dose: 400.0 mg/kg/injection, schedule: Q04DX003 (ip), vehicle: acetone 88 % of control

CCOc1ccc2nc3cc(N)ccc3c(N)c2c1
inactive: [13] 101 % of control | endpoint: mean survival time, dose: 50.0 mg/kg/injection, schedule: Q01DX009 (ip), vehicle: saline 113 % of control | [10] 122 % of control and 101 % of control | endpoint: mean survival time, dose: 100.0 mg/kg/injection, schedule: Q04DX003 (ip), vehicle: saline 114 % of control | endpoint: mean survival time, dose: 200.0 mg/kg/injection, schedule: Q04DX003 (ip), vehicle: saline 105 % of control | endpoint: mean survival time, dose: 400.0 mg/kg/injection, schedule: Q04DX003 (ip), vehicle: saline 105 % of control

CCN(CC)CC(=O)Nc1c(C)cccc1C
inactive: endpoint: mean survival time, dose: 25.0 mg/kg/injection, schedule: Q01DX009 (ip), vehicle: saline with Tween-80 95 % of control | [1] 95 % of control | [2] 89 % of control | [3] 95 % of control

Nc1nc(N)c(N=Nc2cccc3ccccc23)c(N)n1
inactive: endpoint: mean survival time, dose: 6.25 mg/kg/injection, schedule: Q01DX009 (ip), vehicle: other 98 % of control | endpoint: mean survival time, dose: 12.5 mg/kg/injection, schedule: Q01DX009 (ip), vehicle: other 96 % of control | endpoint: mean survival time, dose: 25.0 mg/kg/injection, schedule: Q01DX009 (ip), vehicle: other 95 % of control | endpoint: mean survival time, dose: 25.0 mg/kg/injection, schedule: Q01DX009 (ip), vehicle: water 103 % of control | endpoint: mean survival time, dose: 50.0 mg/kg/injection, schedule: Q01DX009 (ip), vehicle: other 95 % of control | endpoint: mean survival time, dose: 50.0 mg/kg/injection, schedule: Q01DX009 (ip), vehicle: water 104 % of control | endpoint: mean survival time, dose: 100.0 mg/kg/injection, schedule: Q01DX009 (ip), vehicle: other 96 % of control | endpoint: mean survival time, dose: 100.0 mg/kg/injection, schedule: Q01DX009 (ip), vehicle: water 87 % of control

COc1cc(N2C(N)=NC(N)=NC2(C)C)cc(OC)c1OC
inactive: endpoint: mean survival time, dose: 6.25 mg/kg/injection, schedule: Q04DX003 (ip), vehicle: saline 97 % of control | endpoint: mean survival time, dose: 12.5 mg/kg/injection, schedule: Q04DX003 (ip), vehicle: saline 102 % of control | endpoint: mean survival time, dose: 25.0 mg/kg/injection, schedule: Q04DX003 (ip), vehicle: saline 102 % of control

CN1C(=O)CC(c2ccc(NC(=O)N(CCCl)N=O)cc2)C1=O (configuration not stated)
active: endpoint: mean survival time, dose: 12.5 mg/kg/injection, schedule: Q01DX001 (ip), vehicle: distilled water + Tween-80 155 % of control and 160 % of control | endpoint: mean survival time, dose: 25.0 mg/kg/injection, schedule: Q01DX001 (ip), vehicle: distilled water + Tween-80 183 % of control and 196 % of control
inactive: endpoint: mean survival time, dose: 50.0 mg/kg/injection, schedule: Q01DX001 (ip), vehicle: distilled water + Tween-80 95 % of control

NCc1ccncc1
inactive: endpoint: mean survival time, dose: 100.0 mg/kg/injection, schedule: Q04DX002 (ip), vehicle: saline 106 % of control | endpoint: mean survival time, dose: 200.0 mg/kg/injection, schedule: Q04DX002 (ip), vehicle: saline 95 % of control | endpoint: mean survival time, dose: 400.0 mg/kg/injection, schedule: Q04DX002 (ip), vehicle: saline 98 % of control

O=C(Cc1ccccc1)C(O)c1ccccc1 (configuration not stated)
inactive: endpoint: mean survival time, dose: 100.0 mg/kg/injection, schedule: Q01DX001 (ip), vehicle: saline with Tween-80 86 % of control | endpoint: mean survival time, dose: 200.0 mg/kg/injection, schedule: Q01DX001 (ip), vehicle: saline with Tween-80 92 % of control | endpoint: mean survival time, dose: 400.0 mg/kg/injection, schedule: Q01DX001 (ip), vehicle: saline with Tween-80 87 % of control

Cc1nc(C(Cl)C2OC(CO)C(O)C2O)cc(=O)[nH]1 (configuration not stated)
inactive: endpoint: median survival time, dose: 18.25 mg/kg/injection, schedule: Q01DX005 (ip), vehicle: saline 118 % of control | endpoint: median survival time, dose: 36.5 mg/kg/injection, schedule: Q01DX005 (ip), vehicle: saline 100 % of control | endpoint: median survival time, dose: 73.0 mg/kg/injection, schedule: Q01DX005 (ip), vehicle: saline 102 % of control | endpoint: median survival time, dose: 146.0 mg/kg/injection, schedule: Q01DX005 (ip), vehicle: saline 100 % of control

From PubChem BioAssay AID256 (DTP/NCI, 2004)
